{"source": "patent US6582919B2", "about": "“Method of determining epidermal growth factor receptor and HER2-neu gene expression and correlation of levels thereof with survival rates” (Response Genetics, Inc., priority 2001, dated 2003)", "origin": "cited, not measured here", "key": {"[1]": {"system": "EGFR expressing human mammary carcinoma cells", "details": "cells injected into athymic nude mice (Toi et al. 1990)"}, "[2]": {"system": "tumors not expressing EGFR", "details": "Toi et al. 1990"}}}
{"smiles": "O=CN/C=C/c1cc(O)ccc1O", "note": "[erbstatin]", "values": [{"measurement": "growth of EGFR expressing human mammary carcinoma cells", "setting": "[1]", "result": "reduced the growth"}, {"measurement": "growth of tumors not expressing EGFR", "setting": "[2]", "result": "no effect"}]}
